Experimental data published in patent US20040166058A1, “Ethylenedicysteine (EC)-drug conjugates, compositions and methods for tissue specific disease imaging” (Board of Regents, The University of Texas System, priority 2002, published 2004).
Ends that are not written are not given here.

Legend:
[1] = Cell culture uptake of Re-188 versus Tc-99m labeled EC-agents; assay type: cell-based
Method: To develop EC-DG in a kit form, EC-DG (10 mg) dissolved in 0.2 ml of water was freeze dried with tin chloride (2 mg in 0.2 ml of water) and gluconate (3 mg) in a 10 ml medi-vial and stored at room temperature prior to labeling. During labeling, the freeze dried powder was reconstituted in saline (0.5 ml) and pertechnate (10 mCi) was added. The kit was heated at 55° C. for 30 min (or 75° C. for 15 min). Radiochemical purity of ^99mTc-EC-DG was greater than 95% as determined by radio-TLC (saline, Rf: 0.8)(FIG. 39). A similar method could be applied to other EC-agents such as EC-metronidazole (EC-MN)(FIG. 40) and EC-penciclovir (also known as EC-Guan).

[2] = system: RBA CRL-1747 mammary tumor; experiment: Biodistribution in mammary (breast) tumor-bearing rats; assay type: in vivo; conditions: iv
Method: Biodistribution was assessed in mammary tumor-bearing rats (RBA CRL-1747, n=3/time interval, iv). Studies were performed 14 to 17 days after implantation when tumors reached approximately 1 cm in diameter. Following administration of the radiotracer, rats were sacrificed at 0.5-4 hrs. The selected tissues were excised, weighed and counted for radioactivity by using a gamma counter (Packard Instruments, Downers Grove, Ill.). The biodistribution of tracer in each sample was calculated as percentage of the injected dose per gram of tissue wet weight (% ID/g).
Biodistribution was assessed in breast tumor-bearing rats (RBA CRL-1747, n=3/time interval, iv). Studies were performed 14 to 17 days after implantation when tumors reached approximately 1 cm in diameter. Following administration of the radiotracer, rats were sacrificed at 0.5-4 hrs. The selected tissues were excised, weighed and counted for radioactivity by using a gamma counter (Packard Instruments, Downers Grove, Ill.). The biodistribution of tracer in each sample was calculated as percentage of the injected dose per gram of tissue wet weight (% ID/g).

[3] = system: RBA CRL-1747 (breast cancer cells); experiment: In vitro cellular uptake in breast cancer cells; assay type: cell-based; conditions: 0.5-2 hrs, 50,000 cells/well
Excerpt: There was more uptake in ^99mTc-EC-carnitine than ^99mTc-EC (FIG. 16).

[4] = system: human ovarian cancer cells; conditions: 4-6 μCi/50,000 cells/well, 0.5-2 hrs
mammary tumor = experiment: Scintigraphic imaging in mammary (breast) tumor-bearing rats; assay type: in vivo; conditions: 0.1-4 hrs, 0.1 mCi/rat, iv
Method: Scintigraphic imaging studies was performed in mammary tumor-bearing rats at 0.5-4 hrs (0.3 mCi/rat, n=3, iv). Control group was administered ^99mTc-EC. Computer-outlined region of interest was used to determine tumor uptake (counts/pixel) and tumor/nontumor count density ratios.
Scintigraphic imaging studies was performed in mammary tumor-bearing rats at 0.5-4 hrs (0.3 mCi/rat, n=3, iv). Control group was administered ^99mTc-EC.
Scintigraphic imaging studies was performed in mammary tumor-bearing rats at 0.5-4 hrs (0.1 mCi/rat, n=3, iv). Control group was administered ^99mTc-EC.
Scintigraphic imaging studies was performed in breast tumor-bearing rats at 0.5-4 hrs (0.1 mCi/rat, n=3, iv). Control group was administered ^99mTc-EC.
Scintigraphic imaging studies was performed in breast tumor-bearing rats at 0.1-4 hrs (0.1 mCi/rat, n=3, iv). Control group was administered ^99mTc-EC.

[5] = system: human ovarian and uterine cancer cells; experiment: In vitro cellular uptake in human ovarian and uterine cancer cells; assay type: cell-based; conditions: 4-6 μCi/50,000 cells/well, 0.5-2 hrs
Method: An in vitro cell culture using tumor cells was incubated with ^99mTc-EC-penciclovir (4-6 μCi/50,000 cells/well) at 0.5-2 hrs in human ovarian and uterine cancer cells.

[6] = system: human prostate cancer cells (LNCap, PC-3); experiment: In vitro cellular uptake in human prostate cancer cells; assay type: cell-based; conditions: 4-6 μCi/100,000 cells/well, 0.5-2 hrs, LNCap and PC-3
Method: An in vitro cell culture using tumor cells was incubated with ^99mTc-EC-LHRH (4-6 μCi/100,000 cells/well) at 0.5-2 hrs in human prostate cancer cells. Two types cell lines were used. They are either sensitive to androgen (LNCap) or unresponsive to androgen (PC-3) therapy.

[7] = system: RBA CRL-1747 breast cancer cells; experiment: In vitro blocking study of ^99mTc-EC-angiostatin uptake with unlabeled angiostatin; assay type: cell-based; conditions: unlabeled angiostatin 0-200 μM, 0.5-2 hrs, R^2=0.998; read-out: IC-50 of angiostatin (inhibition of ^99mTc-EC-angiostatin uptake)
Method: The IC-50 of angiostatin was 176 μM (R^2=0.998) (FIG. 3).

Nc1nc2c(ncn2CCC(CO)CNC(=O)[C@H](CS)NCCN[C@@H](CS)C(=O)NCC(CO)CCn2cnc3c(=O)[nH]c(N)nc32)c(=O)[nH]1 (stereo partly drawn) [EC-Guan]
uptakes of Re-188 versus Tc-99m labeled agent [1]: no marked difference between uptakes

Cc1ccc(-c2cc(C(F)(F)F)nn2-c2ccc(S(=O)(=O)NC(=O)NCC(=O)NCCNC(=O)C3C[S][99Tc]45(=[O])[S]CC(C(=O)O)[N]4CC[N]35)cc2)cc1 (stereo not drawn) [^99mTc-EC-COX-2]
tumor-to-tissue count density ratios compared to ^99mTc-EC ([2]; 0.5-4 hrs): increased tumor-to-tissue count density ratios as a function of time
BONE/MUSCLE ([2]; 30 min): 2.419 ± 0.225
Biodistribution BONE & JOINT ([2]; 30 min): 0.324 ± 0.036 % of injected dose per gram of tissue weight
Biodistribution Blood ([2]; 30 min): 2.293 ± 0.038 % of injected dose per gram of tissue weight
Biodistribution Heart ([2]; 30 min): 0.475 ± 0.025 % of injected dose per gram of tissue weight
Biodistribution Intestine ([2]; 30 min): 0.406 ± 0.039 % of injected dose per gram of tissue weight
Biodistribution Kidney ([2]; 30 min): 4.963 ± 0.147 % of injected dose per gram of tissue weight
Biodistribution Liver ([2]; 30 min): 1.556 ± 0.046 % of injected dose per gram of tissue weight
Biodistribution Lung ([2]; 30 min): 1.033 ± 0.035 % of injected dose per gram of tissue weight
Biodistribution Muscle ([2]; 30 min): 0.133 ± 0.007 % of injected dose per gram of tissue weight
Biodistribution Spleen ([2]; 30 min): 0.594 ± 0.298 % of injected dose per gram of tissue weight
Biodistribution Stomach ([2]; 30 min): 0.370 ± 0.010 % of injected dose per gram of tissue weight
Biodistribution Thyroid ([2]; 30 min): 0.784 ± 0.090 % of injected dose per gram of tissue weight
Biodistribution Tumor ([2]; 30 min): 0.587 ± 0.062 % of injected dose per gram of tissue weight
Biodistribution UTERUS ([2]; 30 min): 0.595 ± 0.003 % of injected dose per gram of tissue weight
Tumor/Blood ([2]; 30 min): 0.255 ± 0.022
Tumor/Muscle ([2]; 30 min): 4.375 ± 0.304
UTERUS/BLOOD ([2]; 30 min): 0.259 ± 0.003
UTERUS/MUSCLE ([2]; 30 min): 4.471 ± 0.257
BONE/MUSCLE ([2]; 2 h): 3.058 ± 0.114
Biodistribution BONE & JOINT ([2]; 2 h): 0.190 ± 0.003 % of injected dose per gram of tissue weight
Biodistribution Blood ([2]; 2 h): 1.388 ± 0.063 % of injected dose per gram of tissue weight
Biodistribution Heart ([2]; 2 h): 0.283 ± 0.017 % of injected dose per gram of tissue weight
Biodistribution Intestine ([2]; 2 h): 0.276 ± 0.061 % of injected dose per gram of tissue weight
Biodistribution Kidney ([2]; 2 h): 6.088 ± 0.305 % of injected dose per gram of tissue weight
Biodistribution Liver ([2]; 2 h): 1.461 ± 0.049 % of injected dose per gram of tissue weight
Biodistribution Lung ([2]; 2 h): 0.712 ± 0.098 % of injected dose per gram of tissue weight
Biodistribution Muscle ([2]; 2 h): 0.062 ± 0.003 % of injected dose per gram of tissue weight
Biodistribution Spleen ([2]; 2 h): 0.965 ± 0.056 % of injected dose per gram of tissue weight
Biodistribution Stomach ([2]; 2 h): 0.187 ± 0.004 % of injected dose per gram of tissue weight
Biodistribution Thyroid ([2]; 2 h): 0.449 ± 0.015 % of injected dose per gram of tissue weight
Biodistribution Tumor ([2]; 2 h): 0.424 ± 0.019 % of injected dose per gram of tissue weight
Biodistribution UTERUS ([2]; 2 h): 0.334 ± 0.034 % of injected dose per gram of tissue weight
Tumor/Blood ([2]; 2 h): 0.307 ± 0.018
Tumor/Muscle ([2]; 2 h): 6.876 ± 0.704
UTERUS/BLOOD ([2]; 2 h): 0.240 ± 0.021
UTERUS/MUSCLE ([2]; 2 h): 5.442 ± 0.852
BONE/MUSCLE ([2]; 4 h): 4.314 ± 0.739
Biodistribution BONE & JOINT ([2]; 4 h): 0.178 ± 0.022 % of injected dose per gram of tissue weight
Biodistribution Blood ([2]; 4 h): 1.031 ± 0.033 % of injected dose per gram of tissue weight
Biodistribution Heart ([2]; 4 h): 0.224 ± 0.004 % of injected dose per gram of tissue weight
Biodistribution Intestine ([2]; 4 h): 0.190 ± 0.006 % of injected dose per gram of tissue weight
Biodistribution Kidney ([2]; 4 h): 6.363 ± 0.260 % of injected dose per gram of tissue weight
Biodistribution Liver ([2]; 4 h): 1.506 ± 0.080 % of injected dose per gram of tissue weight
Biodistribution Lung ([2]; 4 h): 0.500 ± 0.011 % of injected dose per gram of tissue weight
Biodistribution Muscle ([2]; 4 h): 0.002 ± 0.004 % of injected dose per gram of tissue weight
Biodistribution Spleen ([2]; 4 h): 0.981 ± 0.041 % of injected dose per gram of tissue weight
Biodistribution Stomach ([2]; 4 h): 0.139 ± 0.004 % of injected dose per gram of tissue weight
Biodistribution Thyroid ([2]; 4 h): 0.372 ± 0.021 % of injected dose per gram of tissue weight
Biodistribution Tumor ([2]; 4 h): 0.406 ± 0.004 % of injected dose per gram of tissue weight
Biodistribution UTERUS ([2]; 4 h): 0.263 ± 0.005 % of injected dose per gram of tissue weight
Tumor/Blood ([2]; 4 h): 0.395 ± 0.014
Tumor/Muscle ([2]; 4 h): 9.715 ± 0.387
UTERUS/BLOOD ([2]; 4 h): 0.255 ± 0.005
UTERUS/MUSCLE ([2]; 4 h): 6.278 ± 0.199
cellular uptake compared to ^99mTc-EC [3]: significant increase in uptake

CN(C)c1ncnc2c1ncn2C1OC(CO)C(NC(=O)C2C[S][99Tc]34(=[O])[S]CC(C(=O)O)[N]3CC[N]24)C1O (stereo not drawn) [^99mTc-EC-adenosine]
cellular uptake compared to ^99mTc-EC [4]: significant increased uptake

C[N+](C)(C)CCCCC(NC(=O)C1C[S][99Tc]23(=[O])[S]CC(C(=O)NC(CCCC[N+](C)(C)C)C(=O)[O-])[N]2CC[N]13)C(=O)[O-] (stereo not drawn) [^99mTc-EC-carnitine]
cellular uptake compared to ^99mTc-EC [3]: more uptake
count density ratios tumor/muscle and heart/muscle (mammary tumor): High count density ratios

Nc1nc2c(ncn2CCC(CO)CNC(=O)C2C[S][99Tc]34(=[O])[S]CC(C(=O)NCC(CO)CCn5cnc6c(=O)[nH]c(N)nc65)[N]3CC[N]24)c(=O)[nH]1 (stereo not drawn) [^99mTc-EC-penciclovir]
cellular uptake compared to ^99mTc-EC [5]: significant increased uptake

^99mTc-EC-LHRH (QHWSYGLRPG; also: 99mTc-ethylenedicysteine (EC) label, attachment site not given here; UniProt P01148 24-33, looked up)
cellular uptake compared to ^99mTc-EC [6]: significant increased uptake

angiostatin
IC50 [7]: 176 µM
